Measurements as given in patent US10758534B2 (Vertex Pharmaceuticals Incorporated, priority 2014, dated 2020).

Target: T1, F508del (Homo sapiens, UniProt P13569, DEL508-508)
T1 construct: expressed in transfected cells
Assay: Protocol 2: FRET membrane potential optical assay (VIPR), identification of correction compounds
Assay type: cell-based
Conditions: F508del CFTR modulator activity; compounds of Table 1; read-out: EC30
How it was run: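 Mouse NIH3T3 cells, stable F508del; cpd 16 hrs, 37° C., serum-free; pos ctrl 27° C. 16 hrs. Rinse in Krebs Ringers, dye load, then add 10 μM forskolin + 20 μM genistein with Cl^−-free (gluconate) medium; depolarization by FRET voltage dyes.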

T1 sequence (P13569 with tags, fused parts or gaps DEL508-508): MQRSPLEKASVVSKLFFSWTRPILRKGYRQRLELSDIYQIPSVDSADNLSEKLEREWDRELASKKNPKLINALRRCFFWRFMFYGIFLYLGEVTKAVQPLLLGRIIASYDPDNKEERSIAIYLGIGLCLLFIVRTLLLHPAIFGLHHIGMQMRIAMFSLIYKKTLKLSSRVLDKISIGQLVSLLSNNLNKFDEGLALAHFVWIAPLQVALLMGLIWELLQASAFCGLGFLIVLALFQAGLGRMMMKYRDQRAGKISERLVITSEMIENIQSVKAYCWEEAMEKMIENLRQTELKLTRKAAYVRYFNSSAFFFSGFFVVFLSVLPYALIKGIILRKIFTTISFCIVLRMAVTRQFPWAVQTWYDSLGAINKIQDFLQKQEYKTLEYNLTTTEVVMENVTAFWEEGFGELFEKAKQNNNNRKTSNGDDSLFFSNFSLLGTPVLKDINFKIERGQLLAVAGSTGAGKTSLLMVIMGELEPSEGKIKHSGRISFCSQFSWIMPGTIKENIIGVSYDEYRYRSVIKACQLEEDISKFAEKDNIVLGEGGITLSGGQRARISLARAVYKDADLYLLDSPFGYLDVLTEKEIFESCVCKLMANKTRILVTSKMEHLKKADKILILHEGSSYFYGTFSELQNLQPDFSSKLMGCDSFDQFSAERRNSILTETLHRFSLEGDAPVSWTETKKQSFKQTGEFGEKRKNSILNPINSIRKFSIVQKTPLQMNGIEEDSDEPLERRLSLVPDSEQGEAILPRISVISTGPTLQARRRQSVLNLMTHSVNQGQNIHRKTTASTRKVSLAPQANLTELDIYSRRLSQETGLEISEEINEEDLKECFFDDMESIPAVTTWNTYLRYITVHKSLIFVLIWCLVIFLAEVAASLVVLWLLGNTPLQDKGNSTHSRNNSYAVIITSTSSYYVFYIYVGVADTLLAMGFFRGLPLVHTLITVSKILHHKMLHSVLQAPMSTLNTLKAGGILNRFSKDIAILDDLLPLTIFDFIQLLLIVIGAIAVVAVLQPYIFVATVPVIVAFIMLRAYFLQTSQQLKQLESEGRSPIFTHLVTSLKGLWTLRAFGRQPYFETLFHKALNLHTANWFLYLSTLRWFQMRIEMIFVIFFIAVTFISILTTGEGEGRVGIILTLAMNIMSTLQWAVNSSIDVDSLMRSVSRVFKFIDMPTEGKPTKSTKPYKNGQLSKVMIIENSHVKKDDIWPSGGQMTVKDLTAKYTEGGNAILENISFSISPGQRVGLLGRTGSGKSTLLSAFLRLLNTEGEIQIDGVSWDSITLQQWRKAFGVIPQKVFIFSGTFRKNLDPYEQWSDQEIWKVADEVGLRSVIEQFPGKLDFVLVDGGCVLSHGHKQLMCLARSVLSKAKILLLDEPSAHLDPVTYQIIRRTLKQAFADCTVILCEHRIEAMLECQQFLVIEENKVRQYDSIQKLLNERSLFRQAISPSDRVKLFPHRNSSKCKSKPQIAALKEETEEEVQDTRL

For CC1CN(c2ncc(-c3ccccc3OC(C)C)cc2C(=O)NS(=O)(=O)c2cccc(N)n2)C(C)(C)C1 (stereo not drawn) [Compound 2283, N-[(6-amino-2-pyridyl)sulfonyl]-5-(2-isopropoxyphenyl)-2-(2,2,4-trimethylpyrrolidin-1-yl)pyridine-3-carboxamide], which EC30 is on record?
Its EC30 is < 3000 nM.

For C[C@@H]1CN(c2nc(N3CCOC(C)(C)C3)c(F)cc2C(=O)NS(=O)(=O)c2cccc(N)n2)C(C)(C)C1 [Compound 2586, N-[(6-amino-2-pyridyl)sulfonyl]-6-(2,2-dimethylmorpholin-4-yl)-5-fluoro-2-[(4S)-2,2,4-trimethylpyrrolidin-1-yl]pyridine-3-carboxamide], which EC30 is on record?
The EC30 was 3000 to 10000 nM.

With CC(C)COc1cc(F)cc(-c2ccc(C(=O)NS(=O)(=O)N3CC(O)CC(F)(F)C3)c(N3C[C@@H](C)CC3(C)C)n2)c1 (stereo partly drawn) [Compound 2508, N-[(3,3-difluoro-5-hydroxy-1-piperidyl)sulfonyl]-6-(3-fluoro-5-isobutoxy-phenyl)-2-[(4S)-2,2,4-trimethylpyrrolidin-1-yl]pyridine-3-carboxamide] as the compound, how does the EC30 read?
The EC30 was < 3000 nM.

CC1CN(c2ncccc2C(=O)NS(=O)(=O)c2cccc(Nc3ccccn3)n2)C(C)(C)C1 (stereo not drawn) [Compound 2068, N—[[6-(2-pyridylamino)-2-pyridyl]sulfonyl]-2-(2,2,4-trimethylpyrrolidin-1-yl)pyridine-3-carboxamide] was tested. Which EC30 did it give?
Its EC30 is < 3000 nM.

Cc1ccc(F)cc1-c1ccc(C(=O)NS(=O)(=O)c2cccc(N)n2)c(N2C[C@@H](C)CC2(C)C)n1 [Compound 2394, N-[(6-amino-2-pyridyl)sulfonyl]-6-(5-fluoro-2-methyl-phenyl)-2-[(4S)-2,2,4-trimethylpyrrolidin-1-yl]pyridine-3-carboxamide] was tested. Which EC30 did it give?
Its EC30 is < 3000 nM.

CC1CN(c2ncccc2C(=O)NS(=O)(=O)c2cccc(N3CCc4ccc(F)cc4C3)n2)C(C)(C)C1 (stereo not drawn) [Compound 2518, N—[[6-(7-fluoro-3,4-dihydro-1H-isoquinolin-2-yl)-2-pyridyl]sulfonyl]-2-(2,2,4-trimethylpyrrolidin-1-yl)pyridine-3-carboxamide] was tested. Which EC30 did it give?
The EC30 was < 3000 nM.

For COc1ncccc1-c1ccc(C(=O)NS(=O)(=O)c2ccc[nH]c2=O)c(N2C[C@@H](C)CC2(C)C)n1 [Compound 2454, 6-(2-methoxy-3-pyridyl)-N-[(2-oxo-1H-pyridin-3-yl)sulfonyl]-2-[(4S)-2,2,4-trimethylpyrrolidin-1-yl]pyridine-3-carboxamide], which EC30 is on record?
Its EC30 is 3000 to 10000 nM.

How did the EC30 turn out when COC(=O)c1cccc(Nc2cccc(S(=O)(=O)NC(=O)c3cccnc3N3CC(C)CC3(C)C)n2)c1 (stereo not drawn) [Compound 2493, methyl 3-[[6-[[2-(2,2,4-trimethylpyrrolidin-1-yl)pyridine-3-carbonyl]sulfamoyl]-2-pyridyl]amino]benzoate] was run?
The EC30 was < 3000 nM.

How did the EC30 turn out when CC1CN(c2ncccc2C(=O)NS(=O)(=O)c2cccc(OC3CCCCCC3)n2)C(C)(C)C1 (stereo not drawn) [Compound 2252, N—[[6-(cycloheptoxy)-2-pyridyl]sulfonyl]-2-(2,2,4-trimethylpyrrolidin-1-yl)pyridine-3-carboxamide] was run?
The EC30 was < 3000 nM.

COc1ccccc1CN(C)c1cccc(S(=O)(=O)NC(=O)c2cccnc2N2CC(C)CC2(C)C)n1 (stereo not drawn) [Compound 2090, N—[[6-[(2-methoxyphenyl)methyl-methyl-amino]-2-pyridyl]sulfonyl]-2-(2,2,4-trimethylpyrrolidin-1-yl)pyridine-3-carboxamide] was tested. Which EC30 did it give?
The EC30 was < 3000 nM.

CNc1cccc(S(=O)(=O)NC(=O)c2cccnc2N2CC(C)CC2(C)C)n1 (stereo not drawn) [Compound 2535, N—[[6-(methylamino)-2-pyridyl]sulfonyl]-2-(2,2,4-trimethylpyrrolidin-1-yl)pyridine-3-carboxamide] was tested. Which EC30 did it give?
The EC30 was 3000 to 10000 nM.

Which EC30 does the source give for CC1CN(c2ncccc2C(=O)NS(=O)(=O)c2cccc(OCCc3cccc(F)c3)n2)C(C)(C)C1 (stereo not drawn) [Compound 2740] here?
The EC30 was < 3000 nM.

CC1CN(c2ncccc2C(=O)NS(=O)(=O)c2cccc(OC3CCC4CCCCC4C3)n2)C(C)(C)C1 (stereo not drawn) [Compound 2211, N-[(6-decalin-2-yloxy-2-pyridyl)sulfonyl]-2-(2,2,4-trimethylpyrrolidin-1-yl)pyridine-3-carboxamide] was tested. Which EC30 did it give?
Its EC30 is < 3000 nM.

For C[C@@H]1CN(c2nc(-c3ccc(F)c(F)c3)ccc2C(=O)NS(=O)(=O)c2ccc[nH]c2=O)C(C)(C)C1 [Compound 2284, 6-(3,4-difluorophenyl)-N-[(2-oxo-1H-pyridin-3-yl)sulfonyl]-2-[(4S)-2,2,4-trimethylpyrrolidin-1-yl]pyridine-3-carboxamide], which EC30 is on record?
Its EC30 is < 3000 nM.

Which EC30 does the source give for COC1CCCN(c2cccc(S(=O)(=O)NC(=O)c3cccnc3N3CC(C)CC3(C)C)n2)C1 (stereo not drawn) [Compound 2152, N—[[6-(3-methoxy-1-piperidyl)-2-pyridyl]sulfonyl]-2-(2,2,4-trimethylpyrrolidin-1-yl)pyridine-3-carboxamide] here?
The EC30 was 3000 to 10000 nM.

Same assay, conditions: Table 3; compounds of Table 1 as modulators of CFTR activity; protocol not stated

How did the EC30 turn out when CC1(CNc2nc(C(C)(C)C)ccc2C(=O)NS(=O)(=O)c2ccc(N)cc2)CCOCC1 [Compound 752, N-(4-aminophenyl)sulfonyl-6-tert-butyl-2-[(4-methyltetrahydropyran-4-yl)methylamino]pyridine-3-carboxamide] was run?
Its EC30 is “++ (“++” means between 3 uM and 10 uM)”.

For CC(C)Oc1ccc(-c2ccc(C(=O)NS(=O)(=O)c3cccc(N)n3)c(N3CCCC(CC(F)(F)F)C3)n2)cn1 (stereo not drawn) [Compound 656, N-[(6-amino-2-pyridyl)sulfonyl]-6-(6-isopropoxy-3-pyridyl)-2-[3-(2,2,2-trifluoroethyl)-1-piperidyl]pyridine-3-carboxamide], which EC30 is on record?
Its EC30 is “+++ (“+++” means <3 uM)”.

C[C@H](COCc1ccccc1)Oc1ccc(-c2ccc(C(=O)NS(=O)(=O)c3cccc(N)n3)c(N3[C@H](C)CC[C@@H]3C)n2)cn1 [Compound 576, N-[(6-amino-2-pyridyl)sulfonyl]-6-[6-[(1R)-2-benzyloxy-1-methyl-ethoxy]-3-pyridyl]-2-[(2S,5R)-2,5-dimethylpyrrolidin-1-yl]pyridine-3-carboxamide] was tested. Which EC30 did it give?
The EC30 was “+++ (“+++” means <3 uM)”.

Which EC30 does the source give for CC(C)COc1cc(F)cc(-c2ccc(C(=O)NS(=O)(=O)c3cccc(N)n3)c(N3CCCCCC3)n2)c1 [Compound 418, N-[(6-amino-2-pyridyl)sulfonyl]-2-(azepan-1-yl)-6-(3-fluoro-5-isobutoxy-phenyl)pyridine-3-carboxamide] here?
The EC30 was “+++ (“+++” means <3 uM)”.

For Cc1cc(C)c(Oc2nc(C(C)(C)C)ccc2C(=O)NS(=O)(=O)c2ccccc2)c(C)c1 [Compound 341, N-(benzenesulfonyl)-6-tert-butyl-2-(2,4,6-trimethylphenoxy)pyridine-3-carboxamide], which EC30 is on record?
Its EC30 is “+++ (“+++” means <3 uM)”.

How did the EC30 turn out when Cc1cc(C)c(Oc2nc(-c3cccc4c3OCO4)ccc2C(=O)NS(=O)(=O)c2ccc[nH]c2=O)c(C)c1 [Compound 525, 6-(1,3-benzodioxol-4-yl)-N-[(2-oxo-1H-pyridin-3-yl)sulfonyl]-2-(2,4,6-trimethylphenoxy)pyridine-3-carboxamide] was run?
Its EC30 is “++ (“++” means between 3 uM and 10 uM)”.

Which EC30 does the source give for Cc1cc(C)c(Cn2c(C(=O)NS(=O)(=O)c3cccc(N)c3)cc3cc(C#N)ccc32)c(C)c1 [Compound 291, N-(3-aminophenyl)sulfonyl-5-cyano-1-[(2,4,6-trimethylphenyl)methyl]indole-2-carboxamide] here?
Its EC30 is “++ (“++” means between 3 uM and 10 uM)”.

How did the EC30 turn out when Cc1ccc(-c2ccc(C(=O)NS(=O)(=O)c3cccc(N)n3)c(N3CC(C)CC3(C)C)n2)cc1 (stereo not drawn) [Compound 456, N-[(6-amino-2-pyridyl)sulfonyl]-6-(p-tolyl)-2-(2,2,4-trimethylpyrrolidin-1-yl)pyridine-3-carboxamide] was run?
The EC30 was “+++ (“+++” means <3 uM)”.

CC(C)COc1cc(F)cc(-c2ccc(C(=O)NS(=O)(=O)c3cccc(N)n3)c(OC(C)c3cccc(F)c3)n2)c1 (stereo not drawn) [Compound 562, N-[(6-amino-2-pyridyl)sulfonyl]-6-(3-fluoro-5-isobutoxy-phenyl)-2-[1-(3-fluorophenyl)ethoxy]pyridine-3-carboxamide] was tested. Which EC30 did it give?
Its EC30 is “+++ (“+++” means <3 uM)”.

With CC(C)CNc1cc(-c2ccc(C(=O)NS(=O)(=O)c3cccc(N)n3)c(N3CC(C)CC3(C)C)n2)ccn1 (stereo not drawn) [Compound 523, N-[(6-amino-2-pyridyl)sulfonyl]-6-[2-(isobutylamino)-4-pyridyl]-2-(2,2,4-trimethylpyrrolidin-1-yl)pyridine-3-carboxamide] as the compound, how does the EC30 read?
The EC30 was “+++ (“+++” means <3 uM)”.

With CCCOc1cc(-c2ccc(C(=O)NS(=O)(=O)c3cccc(N)n3)c(N3[C@H](C)CC[C@@H]3C)n2)ccc1Cl [Compound 773, N-[(6-amino-2-pyridyl)sulfonyl]-6-(4-chloro-3-propoxy-phenyl)-2-[(2R,5S)-2,5-dimethylpyrrolidin-1-yl]pyridine-3-carboxamide] as the compound, how does the EC30 read?
The EC30 was “+++ (“+++” means <3 uM)”.

Cc1cc(C)c(Cn2nc(CC(C)C)cc2C(=O)NS(=O)(=O)c2cccc(N)c2)c(C)c1 [Compound 167, N-(3-aminophenyl)sulfonyl-5-isobutyl-2-[(2,4,6-trimethylphenyl)methyl]pyrazole-3-carboxamide] was tested. Which EC30 did it give?
The EC30 was “++ (“++” means between 3 uM and 10 uM)”.

For Cc1cc(C)c(Oc2nc(C(F)(F)F)ccc2C(=O)NS(=O)(=O)c2cccc(N)c2)c(C)c1 [Compound 96, N-(3-aminophenyl)sulfonyl-6-(trifluoromethyl)-2-(2,4,6-trimethylphenoxy)pyridine-3-carboxamide], which EC30 is on record?
The EC30 was “+++ (“+++” means <3 uM)”.

For COc1ncccc1-c1ccc(C(=O)NS(=O)(=O)c2cccc(N)n2)c(N2CC(C)CC2(C)C)n1 (stereo not drawn) [Compound 526, N-[(6-amino-2-pyridyl)sulfonyl]-6-(2-methoxy-3-pyridyl)-2-(2,2,4-trimethylpyrrolidin-1-yl)pyridine-3-carboxamide], which EC30 is on record?
The EC30 was “+++ (“+++” means <3 uM)”.

CC(C)COc1cccc(-c2ccc(C(=O)NS(=O)(=O)c3ccn[nH]3)c(N3[C@H](C)CC[C@@H]3C)n2)c1 [Compound 710, 2-[(2S,5R)-2,5-dimethylpyrrolidin-1-yl]-6-(3-isobutoxyphenyl)-N-(1H-pyrazol-5-ylsulfonyl)pyridine-3-carboxamide] was tested. Which EC30 did it give?
The EC30 was “+++ (“+++” means <3 uM)”.
